# What was measured:
# [1] = tested on: S6 Ribosomal Protein phosphorylation Ser235/236 in TSC1 null mouse embryo fibroblast (MEF) cells; assay: Reverse protein array assay, S6 Ribosomal Protein phosphorylation Ser235/236 in TSC1 null MEF cells; assay type: cell-based; conditions: 1 h, pS6 ribosomal protein Ser235/236, 60 minutes incubation, read-out: p-S6 IC50
# How it was run: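 TSC1−/− MEFs, seeded and held ≥20 h at 37 °C/5% CO2, were exposed to 8-step serial compound dilutions (0.02% DMSO final; DMSO vehicle control) for 60 min at 37 °C. Cells were then lysed on ice for 10 min and lysates spotted onto reverse protein array chips.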
# [2] = tested on: PKB Ser473 phosphorylation in Rat1-myr-HA-p110 alpha cells; assay: Reverse protein array assay, PKB Ser473 phosphorylation in Rat1-myr-p110 alpha cells; assay type: cell-based; conditions: 0.5 h, pAkt Ser473, 30 minutes compound incubation, read-out: p-PKB IC50
# How it was run: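 Compound exposure lasted 30 min in Rat1 cells bearing membrane-targeted HA-p110 isoforms, using 8 serial concentrations. Arrayed lysates, each spotted at four dilutions, gave relative fluorescence signals for phospho-Ser473 PKB.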
# PI3K beta = target: T1, PI3K beta (Homo sapiens, UniProt P42338); assay: PI3K beta kinase assay (Kinase-Glo luminescence); assay type: biochemical
# T1 construct: for the full-length p110-b subunit are generated and fused by overlapping PCR; p85(iSH2) fusion partner (see partner chain) (N); His tag (C); made in house; host or cells: baculovirus; Tn5 (Trichoplusia ni) or TiniPro insect cells
# How it was run: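 IC50 is derived by four-parameter logistic curve fitting of Kinase-Glo luminescence, which measures ATP left after a 60 min room-temperature reaction. Conditions are 25 nM His-tagged p85(iSH2)-p110β, 1 μM ATP and 10 μg/mL bovine liver phosphatidylinositol.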
# T1 sequence (P42338 with tags, fused parts or gaps limits assumed): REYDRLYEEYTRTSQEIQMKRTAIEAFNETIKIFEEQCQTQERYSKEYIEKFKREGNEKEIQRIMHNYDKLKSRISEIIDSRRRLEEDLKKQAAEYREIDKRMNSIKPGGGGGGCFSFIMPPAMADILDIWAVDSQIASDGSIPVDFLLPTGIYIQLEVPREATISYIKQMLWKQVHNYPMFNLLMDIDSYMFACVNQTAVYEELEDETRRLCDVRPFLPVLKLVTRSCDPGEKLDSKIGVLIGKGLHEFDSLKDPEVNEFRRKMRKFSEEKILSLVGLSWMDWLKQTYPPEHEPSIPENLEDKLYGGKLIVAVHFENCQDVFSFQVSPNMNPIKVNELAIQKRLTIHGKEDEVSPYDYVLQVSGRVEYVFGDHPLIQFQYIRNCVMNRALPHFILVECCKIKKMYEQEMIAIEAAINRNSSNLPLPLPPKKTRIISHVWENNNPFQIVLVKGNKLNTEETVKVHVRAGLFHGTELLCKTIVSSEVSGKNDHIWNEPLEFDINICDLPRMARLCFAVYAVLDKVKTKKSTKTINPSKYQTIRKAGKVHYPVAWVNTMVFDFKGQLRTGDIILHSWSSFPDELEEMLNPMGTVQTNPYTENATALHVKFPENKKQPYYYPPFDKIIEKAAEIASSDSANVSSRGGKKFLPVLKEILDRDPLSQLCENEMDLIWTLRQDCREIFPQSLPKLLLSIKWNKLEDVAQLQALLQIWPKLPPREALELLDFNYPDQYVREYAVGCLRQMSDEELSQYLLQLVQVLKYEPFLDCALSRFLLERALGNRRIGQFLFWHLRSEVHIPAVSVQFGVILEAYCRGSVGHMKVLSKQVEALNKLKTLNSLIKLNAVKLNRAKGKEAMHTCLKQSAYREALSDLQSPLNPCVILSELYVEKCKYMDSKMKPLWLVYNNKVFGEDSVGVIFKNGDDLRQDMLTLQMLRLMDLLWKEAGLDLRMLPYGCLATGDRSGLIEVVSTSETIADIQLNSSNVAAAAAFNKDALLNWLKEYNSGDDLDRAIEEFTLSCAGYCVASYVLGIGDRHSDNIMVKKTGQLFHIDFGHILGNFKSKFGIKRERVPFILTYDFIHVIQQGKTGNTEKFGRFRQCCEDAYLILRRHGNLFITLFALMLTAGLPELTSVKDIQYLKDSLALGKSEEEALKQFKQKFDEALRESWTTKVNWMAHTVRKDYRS
SMILES,IC50 [2],IC50 (PI3K beta),IC50 [1]
"Cc1noc(C)c1-n1c(=O)n(C)c2cnc3ccc(-c4cnc(N)c(C(F)(F)F)c4)cc3c21 [Example 25.5, 8-(6-Amino-5-trifluoromethyl-pyridin-3-yl)-1-(3,5-dimethyl-isoxazol-4-yl)-3-methyl-1,3-dihydro-imidazo[4,5-c]quinolin-2-one]",97 nM,30 nM,8 nM
"Cc1nn(C)cc1-n1c(=O)n(C)c2cnc3ccc(-c4cncnc4)cc3c21 [Example 26, 1-(1,3-Dimethyl-1H-pyrazol-4-yl)-3-methyl-8-pyrimidin-5-yl-1,3-dihydro-imidazo[4,5-c]quinolin-2-one]",159 nM,517 nM,5 nM
"Cc1nn(C)cc1-n1c(=O)n(C)c2cnc3ccc(-c4cc(O)cc(C(F)(F)F)c4)cc3c21 [Example 34, 1-(1,3-Dimethyl-1H-pyrazol-4-yl)-8-(3-hydroxy-5-trifluoromethyl-phenyl)-3-methyl-1,3-dihydro-imidazo[4,5-c]quinolin-2-one]",138 nM,15 nM,3.56 nM
"Cc1nn(C)cc1-n1c(=O)n(C)c2cnc3ccc(-c4cnc5[nH]ccc5c4)cc3c21 [Example 36, 1-(1,3-dimethyl-1H-pyrazol-4-yl)-3-methyl-8-(1H-pyrrolo[2,3-b]pyridin-5-yl)-1,3-dihydro-imidazo[4,5-c]quinolin-2-one]",5 nM,32 nM,< 0.5 nM
"CNC(=O)c1ccc(-c2ccc3ncc4c(c3c2)n(-c2cn(C)nc2Cl)c(=O)n4C)cc1 [Example 43.2, 4-[1-(3-Chloro-1-methyl-1H-pyrazol-4-yl)-3-methyl-2-oxo-2,3-dihydro-1H-imidazol[4,5-c]quinolin-8-yl]-N-methyl-benzamide]",6 nM,56 nM,< 0.5 nM
"CCCOc1ccc(-c2ccc3ncc4c(c3c2)n(-c2cn(C)nc2C)c(=O)n4C)cn1 [Example 55, 1-(1,3-Dimethyl-1H-pyrazol-4-yl)-3-methyl-8-(6-propoxy-pyridin-3-yl)-1,3-dihydro-imidazo[4,5-c]quinolin-2-one]",20 nM,951 nM,18 nM
"CCOc1cccc(-c2ccc3ncc4c(c3c2)n(-c2cn(C)nc2C)c(=O)n4C)c1 [Example 57, 1-(1,3-Dimethyl-1H-pyrazol-4-yl)-8-(3-ethoxy-phenyl)-3-methyl-1,3-dihydro-imidazo[4,5-c]quinolin-2-one]",51 nM,215 nM,5 nM
"COc1ncc(-c2ccc3ncc4c(c3c2)n(-c2cn(C)nc2C)c(=O)n4C)cc1N(C)C(C)=O [Example 62, N-{5-[1-(1,3-Dimethyl-1H-pyrazol-4-yl)-3-methyl-2-oxo-2,3-dihydro-1H-imidazo[4,5-c]quinolin-8-yl]-2-methoxy-pyridin-3-yl}-N-methyl-acetamide]",469 nM,83 nM,98 nM
CNc1ncc(-c2ccc3ncc4c(c3c2)n(-c2c(C)nn(C)c2C)c(=O)n4C)cn1 [Example 80.2],108 nM,288 nM,28 nM
"Cc1nn(C)cc1-n1c(=O)n(C)c2cnc3ccc(-c4cnc(N)nc4)cc3c21 [Example 81.1, 8-(2-Amino-pyrimidin-5-yl)-1-(1,3-dimethyl-1H-pyrazol-4-yl)-3-methyl-1,3-dihydro-imidazo[4,5-c]quinolin-2-one]",13 nM,91 nM,1.69 nM
"Cc1nn(C)cc1-n1c(=O)n(C)c2cnc3ccc(-c4ccc(N5CCN(C)CC5)nc4)cc3c21 [Example 96, 1-(1,3-Dimethyl-1H-pyrazol-4-yl)-3-methyl-8-[6-(4-methyl-piperazin-1-yl)-pyridin-3-yl]-1,3-dihydro-imidazo[4,5-c]quinolin-2-one]",12 nM,544 nM,7 nM
"COc1ccc(-c2ccc3ncc4c(c3c2)n(-c2cn(CC(=O)N(C)C)nc2C)c(=O)n4C)cn1 [Example 102, 2-{4-[8-(6-Methoxy-pyridin-3-yl)-3-methyl-2-oxo-2,3-dihydro-imidazo[4,5-c]quinolin-1-yl]-3-methyl-pyrazol-1-yl}-N,N-dimethyl-acetamide]",33 nM,291 nM,< 5 nM
"Cc1nn(C(C)C)cc1-n1c(=O)n(C)c2cnc3ccc(-c4ccc(C(N)=O)nc4)cc3c21 [Example 112, 5-[1-(1-Isopropyl-3-methyl-1H-pyrazol-4-yl)-3-methyl-2-oxo-2,3-dihydro-1H-imidazo[4,5-c]quinolin-8-yl]-pyridine-2-carboxylic acid amide]",24 nM,391 nM,60 nM
"Cc1nn(C)cc1-n1c(=O)n(C)c2cnc3ccc(-c4cccc(N(C)S(C)(=O)=O)c4)cc3c21 [Example 117, N-{3-[1-(1,3-Dimethyl-1H-pyrazol-4-yl)-3-methyl-2-oxo-2,3-dihydro-1H-imidazo[4,5-c]quinolin-8-yl]-phenyl}-N-methyl-methanesulfonamide]",282 nM,907 nM,154 nM
"CCNc1cncc(-c2ccc3ncc4c(c3c2)n(-c2cn(C)nc2C)c(=O)n4C)c1 [Example 122, 1-(1,3-Dimethyl-1H-pyrazol-4-yl)-8-(5-ethylamino-pyridin-3-yl)-3-methyl-1,3-dihydro-imidazo[4,5-c]quinolin-2-one]",< 5 nM,22 nM,< 0.5 nM
"[2H]C([2H])([2H])Nc1ncc(-c2ccc3ncc4c(c3c2)n(-c2c(C)nn(C)c2C)c(=O)n4C)cc1C(F)(F)F [Example 143, 3-Methyl-8-(6-trideuteromethylamino-5-trifluoromethyl-pyridin-3-yl)-1-(1,3,5-trimethyl-1H-pyrazol-4-yl)-1,3-dihydro-imidazo[4,5-c]quinolin-2-one]",40 nM,111 nM,9 nM

# Now from value to molecule, other results behind:
IC50 [2],IC50 (PI3K beta),SMILES,IC50 [1]
33 nM,21 nM,"COCCOc1cc(-c2ccc3ncc4c(c3c2)n(-c2cn(C)nc2C)c(=O)n4C)cnc1C [Example 86.2, 1-(1,3-Dimethyl-1H-pyrazol-4-yl)-8-[5-(2-methoxy-ethoxy)-6-methyl-pyridin-3-yl]-3-methyl-1,3-dihydro-imidazo[4,5-c]quinolin-2-one]",5 nM
33 nM,93 nM,"CCNc1cc(-c2ccc3ncc4c(c3c2)n(-c2c(C)nn(CCOC)c2C)c(=O)n4C)cnc1C [Example 87.4, 8-(5-Ethylamino-6-methyl-pyridin-3-yl)-1-[1-(2-methoxy-ethyl)-3,5-dimethyl-1H-pyrazol-4-yl]-3-methyl-1,3-dihydro-imidazo[4,5-c]quinolin-2-one]",41 nM
24 nM,68 nM,"Cc1ncc(-c2ccc3ncc4c(c3c2)n(-c2cn(C)nc2C)c(=O)n4C)cc1N [Example 88.2, 8-(5-Amino-6-methyl-pyridin-3-yl)-1-(1,3-dimethyl-1H-pyrazol-4-yl)-3-methyl-1,3-dihydro-imidazo[4,5-c]quinolin-2-one]",7 nM
< 5 nM,39 nM,"CCNc1cc(-c2ccc3ncc4c(c3c2)n(-c2cn(C)nc2Cl)c(=O)n4C)cnc1OC [Example 90.1, 1-(3-Chloro-1-methyl-1H-pyrazol-4-yl)-8-(5-ethylamino-6-methoxy-pyridin-3-yl)-3-methyl-1,3-dihydro-imidazo[4,5-c]quinolin-2-one]",< 0.5 nM
8 nM,302 nM,"CNc1ccc(-c2ccc3ncc4c(c3c2)n(-c2cn(C(C)C)nc2C)c(=O)n4C)cn1 [Example 118.1, 1-(1-isopropyl-3-methyl-1H-pyrazol-4-yl)-3-methyl-8-(6-methylamino-pyridin-3-yl)-1,3-dihydro-imidazo[4,5-c]quinolin-2-one]",5 nM
107 nM,695 nM,"CNc1ccc(-c2ccc3ncc4c(c3c2)n(-c2cn(CC(=O)N(C)C)nc2C)c(=O)n4C)cn1 [Example 118.3, N,N-Dimethyl-2-{3-methyl-4-[3-methyl-8-(6-methylamino-pyridin-3-yl)-2-oxo-2,3-dihydro-imidazo[4,5-c]quinolin-1-yl]-pyrazol-1-yl}-acetamide]",15 nM
< 5 nM,41 nM,"CNc1ccc(-c2ccc3ncc4c(c3c2)n(-c2cn(C)nc2Cl)c(=O)n4C)cn1 [Example 118.5, 1-(3-Chloro-1-methyl-1H-pyrazol-4-yl)-3-methyl-8-(6-methylamino-pyridin-3-yl)-1,3-dihydro-imidazo[4,5-c]quinolin-2-one]",< 0.5 nM
6 nM,287 nM,"Cc1nn(C)cc1-n1c(=O)n(C)c2cnc3ccc(-c4cnc(N)c(F)c4)cc3c21 [Example 142.2, 8-(6-Amino-5-fluoro-pyridin-3-yl)-1-(1,3-dimethyl-1H-pyrazol-4-yl)-3-methyl-1,3-dihydro-imidazo[4,5-c]quinolin-2-one]",< 0.5 nM
